Broadly, the CC50 is the concentration at which the toxic effect on the cells reaches its halfway point. In general, residual activity refers to the signal under treatment as a percentage of the control signal. By IC50 is commonly meant the concentration that inhibits the measured activity by half.

The structures appear in SMILES notation. Calls of active or inactive are those of the source. The rule behind the calls is not given here. Bounds are passed on as bounds.

Data set [1] deals with MT2. Kind of data set: Cytotoxicity against non-infected human MT2 cells at 10 uM after 48 hrs by CellTiter Glo assay. The conditions noted are these: mt2, 48 h. Type of data set: cell-based.
The nature of data set [2]: Cytotoxicity against non-infected human MT2 cells after 48 hrs by CellTiter Glo assay. Type of data set: cell-based.
Data set [3] relates to Human immunodeficiency virus 1. Kind of data set: Antiviral activity against X4 tropic HIV1 pNL4.3-Ren infected in human MT2 cells at 10 uM dosed simultaneously with virus infection measured 48 hrs post-infection by recombinant virus assay. Type of data set: functional. The conditions noted are these: Human immunodeficiency virus 1, pNL4.3-Ren, MT2, 48 h; values are per cent of control.

Data set [4] deals with Human immunodeficiency virus 1. In words: Inhibition of viral transcription in X4 tropic HIV1 pNL4.3-Luc transfected human MT2 cells at 20 uM dosed post transfection and measured 24 hrs post compound dose by luciferase reporter gene assay. Type of data set: functional. The conditions noted are these: Human immunodeficiency virus 1, pNL4.3-Luc, MT2, 24 h; read-out: INH. (In a reporter assay the amount or activity of a reporter protein is the signal.)

For data set [5], the system named is MT2. In words: Inhibition of Sp1 transcription in X4 tropic HIV1 pNL4.3-Luc transfected human MT2 cells at 20 uM dosed post transfection and measured 24 hrs post compound dose by luciferase reporter gene assay. Type of data set: functional.
For data set [6], the system named is Human immunodeficiency virus 1. Kind of data set: Antiviral activity against X4 tropic HIV1 pNL4.3-Ren infected in human MT2 cells dosed simultaneously with virus infection measured 48 hrs post-infection by recombinant virus assay. Type of data set: functional, organism-based. The following applies: Human immunodeficiency virus 1, pNL4.3-Ren, MT2, 48 h.
Data set [7] relates to Human immunodeficiency virus 1. In words: Antiviral activity against luciferase tagged VSV envelope pseudotyped HIV1 infected in human MT2 cells dosed simultaneously with virus infection measured 48 hrs post-infection by recombinant virus assay. Type of data set: functional, organism-based. The conditions noted are these: Human immunodeficiency virus 1, MT2, 48 h.
Data set [8] has as its system MT2. In words: Inhibition of NFkappaB transcription in X4 tropic HIV1 pNL4.3-Luc transfected human MT2 cells at 20 uM dosed post transfection and measured 24 hrs post compound dose by luciferase reporter gene assay. Type of data set: functional.

As to `CC1(C)C=C2[C@H]3CC[C@@H]4[C@@]5(C)CCC(=O)C(C)(C)[C@@H]5CC[C@@]4(C)[C@]3(C)CC[C@@]2(C)CC1=O`, in the data set with MT2 [1], the Activity was 222%. The CC50 at 48 h in data set [2] is over 100 µM. The residual activity at 10 µM in data set [3] turned out to be 14%. Also, the percent inhibition at 20 µM in data set [4] is under 50%. Also, the inhibition result in the data set with MT2 [5] and in the data set with MT2 [8] was “Active” throughout. Besides, the IC50 in data set [6] was 4.04 µM; in data set [7] it was 3.2 µM.

Compound `CC1(C)C=C2[C@H]3CC[C@@H]4[C@@]5(C)CC[C@H](O)C(C)(C)[C@@H]5CC[C@@]4(C)[C@]3(C)CC[C@@]2(C)C[C@H]1O` came in with an Activity with MT2 [1] of 69%. The compound also displayed a CC50 at 48 h in data set [2] of over 100 µM. Besides, the residual activity at 10 µM in data set [3] is 18%. The percent inhibition at 20 µM in data set [4] is under 50%. Moreover, the inhibition entry with MT2 [5] and in the data set with MT2 [8] was “Active” throughout. Moreover, the half-inhibitory concentration (IC50) in data set [6] was 64.4 µM; in data set [7], 54.3 µM.

In turn, `CC(=O)OC[C@@]1(C)C=C2[C@H]3CC[C@@H]4[C@@]5(C)CCC(=O)C(C)(C)[C@@H]5CC[C@@]4(C)[C@]3(C)CC[C@@]2(C)CC1` came in with an Activity in the data set with MT2 [1] of 116%. The residual activity at 10 µM in data set [3] was found to be 116%.

In the data set with MT2 [1], `CC1(C)[C@@H](O)CC[C@]2(C)[C@H]3CC[C@@H]4C5=C[C@](C)(CO)CC[C@]5(C)CC[C@@]4(C)[C@]3(C)CC[C@@H]12` showed an Activity of 67%. The compound also had a CC50 at 48 h in data set [2] of over 100 µM. In addition, the residual activity at 10 µM in data set [3] stood at 17%. The percent inhibition at 20 µM in data set [4] was under 50%. The inhibition entry in the data set with MT2 [5] and in the data set with MT2 [8] was “Active” throughout. In addition, the half-inhibitory concentration (IC50) was determined as 10.4 µM in data set [6] and 6.56 µM in data set [7].

`CC1(C)C=C2[C@H]3CC[C@@H]4[C@@]5(C)CC[C@H](O)C(C)(C)[C@@H]5CC[C@@]4(C)[C@]3(C)CC[C@@]2(C)CC1` [GERMANICOL]: in data set [3], the residual activity at 10 µM worked out at 86%.

With `CC1(C)C(=O)CC[C@]2(C)[C@H]3CC[C@@H]4C5=C[C@](C)(CO)CC[C@]5(C)CC[C@@]4(C)[C@]3(C)CC[C@@H]12`, the residual activity at 10 µM in data set [3] amounted to 50%.

For `CC1(C)C=C2[C@H]3CC[C@@H]4[C@@]5(C)CCC(=O)C(C)(C)[C@@H]5CC[C@@]4(C)[C@]3(C)CC[C@@]2(C)C[C@H]1O`, in the data set with MT2 [1], the Activity was found to be 74%. Also, the CC50 at 48 h in data set [2] was over 100 µM. For the same compound, in data set [3], the residual activity at 10 µM was 22%. For the same compound, the percent inhibition at 20 µM in data set [4] is under 50%. For the same compound, the inhibition result in the data set with MT2 [5] and in the data set with MT2 [8] was “Active” in each case. For the same compound, the half-maximal inhibitory concentration (IC50) in data set [6] and in data set [7] was 20 µM in each case.

With `CC(=O)O[C@H]1CC[C@]2(C)[C@H]3CC[C@@H]4C5=CC(C)(C)CC[C@]5(C)CC[C@@]4(C)[C@]3(C)C[C@@H](O)[C@H]2C1(C)C`, the Activity in the data set on MT2 [1] worked out at 124%. Besides, the residual activity at 10 µM in data set [3] is 102%.

As for `CC1(C)C(=O)CC[C@]2(C)[C@H]3CC[C@@H]4C5=C[C@](C)(CO)CC[C@]5(C)CC[C@@]4(C)[C@]3(C)C[C@@H](O)[C@@H]12`, in the data set on MT2 [1], the Activity turned out to be 62%. For the same compound, the CC50 at 48 h in data set [2] is over 100 µM. Besides, the residual activity at 10 µM in data set [3] was found to be 16%. Further, the percent inhibition at 20 µM in data set [4] was under 50%. Moreover, the inhibition entry in the data set on MT2 [5] and in the data set with MT2 [8] was “Active” throughout. For the same compound, the 50% inhibitory concentration (IC50) in data set [6] came out at 65.6 µM; in data set [7], 20 µM.

As to `CC1(C)C=C2[C@H]3C[C@@H](O)[C@@H]4[C@@]5(C)CC[C@H](O)C(C)(C)[C@@H]5CC[C@@]4(C)[C@]3(C)CC[C@@]2(C)CC1` [NIVADIOL], the residual activity at 10 µM in data set [3] was 121%.

`CC1(C)C=C2[C@H]3CC[C@@H]4[C@@]5(C)CC[C@H](O)C(C)(C)[C@@H]5[C@H](O)C[C@@]4(C)[C@]3(C)CC[C@@]2(C)CC1` yielded an Activity with MT2 [1] of 5%. In addition, the CC50 at 48 h in data set [2] came out at 25.5 µM. The residual activity at 10 µM in data set [3] was determined as 1%. Moreover, the half-inhibitory concentration (IC50) in data set [6] is 11.6 µM; in data set [7] it was 4.32 µM.

As to `CC(=O)O[C@H]1CC[C@]2(C)[C@H]3CC[C@@H]4C5=CC(C)(C)[C@H](OC(C)=O)C[C@]5(C)CC[C@@]4(C)[C@]3(C)CC[C@H]2C1(C)C`, in the data set with MT2 [1], the Activity was found to be 93%. The residual activity at 10 µM in data set [3] came out at 107%.

For the compound `CC1(C)C=C2[C@H]3C[C@@H](O)[C@@H]4[C@@]5(C)CC[C@H](O)C(C)(C)[C@@H]5CC[C@@]4(C)[C@]3(C)CC[C@@]2(CO)CC1`, in data set [3], the residual activity at 10 µM turned out to be 78%.

With `CC1(C)C=C2[C@H]3CC[C@@H]4[C@@]5(C)CCC(=O)C(C)(C)[C@@H]5CC[C@@]4(C)[C@]3(C)CC[C@@]2(C)CC1` [GERMANICONE], the residual activity at 10 µM in data set [3] stood at 84%.

`CC1(C)C=C2[C@H]3CC[C@@H]4[C@@]5(C)CCC(=O)C(C)(C)[C@@H]5[C@H](O)C[C@@]4(C)[C@]3(C)CC[C@@]2(C)CC1`: the Activity with MT2 [1] is given as 222%. In data set [2], this compound registered a half-maximal cytotoxic concentration (CC50) at 48 h of over 100 µM. For the same compound, the residual activity at 10 µM in data set [3] is 28%. Also, the percent inhibition at 20 µM in data set [4] is under 50%. The inhibition result with MT2 [5] and in the data set with MT2 [8] was “Active” each time. Moreover, the 50% inhibitory concentration (IC50) came out at 23.8 µM in data set [6] and 5.14 µM in data set [7].

The values above are taken from ChEMBL document CHEMBL2021887, “Olean-18-ene triterpenoids from Celastraceae species inhibit HIV replication targeting NF-kB and Sp1 dependent transcription” (Eur J Med Chem, 2012).
